Source: article PMC7345905, “Microbial Metabolite Urolithin B Inhibits Recombinant Human Monoamine Oxidase A Enzyme” (Metabolites, 2020)
Where “and” joins values, the source holds several entries; their conditions need not be identical. Identical values can stand only once.

Legend:
human recombinant MAO-A = molecular target: T1, human recombinant MAO-A (Homo sapiens, UniProt P21397); experiment: MAO-A inhibition kinetics (variable substrate, Lineweaver–Burk plot); assay type: biochemical; set-up: Michaelis-Menten best-fit Vmax of MAO-A / Michaelis-Menten best-fit Vmax of MAO-A, Average: unit not given here; conditions: for MAO-A assay signal (luminescence) / Transformed (reciprocal of MAO-A assay signal) / Michaelis-Menten best-fit Vmax of MAO-A: N=1-3
T1 construct: purchased Sigma-Aldrich
T1 sequence (P21397 1-527): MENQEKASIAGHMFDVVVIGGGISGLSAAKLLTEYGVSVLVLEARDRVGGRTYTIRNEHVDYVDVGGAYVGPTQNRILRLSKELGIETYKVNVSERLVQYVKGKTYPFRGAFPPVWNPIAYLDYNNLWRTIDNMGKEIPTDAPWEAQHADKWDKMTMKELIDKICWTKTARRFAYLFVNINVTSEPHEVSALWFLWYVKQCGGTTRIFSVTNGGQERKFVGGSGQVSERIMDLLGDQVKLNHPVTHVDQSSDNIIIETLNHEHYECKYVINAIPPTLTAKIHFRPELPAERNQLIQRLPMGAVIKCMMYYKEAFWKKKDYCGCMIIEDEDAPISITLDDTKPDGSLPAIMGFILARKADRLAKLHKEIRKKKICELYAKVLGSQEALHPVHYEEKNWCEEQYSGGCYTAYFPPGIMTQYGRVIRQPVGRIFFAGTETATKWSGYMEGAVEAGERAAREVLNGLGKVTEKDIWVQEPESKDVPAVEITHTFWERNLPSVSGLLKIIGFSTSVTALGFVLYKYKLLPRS
Description: (§1) MAO inhibition assays were performed using a MAO-Glo™ Assay kit (Promega) according to the manufacturer’s instructions. Briefly, 1 µg of human recombinant MAO-A and MAO-B enzyme isoforms were incubated with 160 and 16 µM of MAO substrates, respectively. […] The enzyme reaction was quenched by the addition of a luciferin detection reagent. […] An equal volume of dimethyl sulfoxide (0.1%) was added to the enzyme assay as a control. After 1 h of incubation, the luminescence was measured with a multimode microplate reader (Synergy HT, BioTek, Winooski, VT, USA) to determine the MAO enzyme activities. Initially, the inhibition potential of all the test compounds was evaluated at a concentration of 100 μM. The control reaction (with no inhibitor) with vehicle (DMSO 0.1%) was set at 100% activity. To determine IC50 of the test compounds, the dose dependent enzyme assays were performed. We used range of 0.1 to 50 μM concentrations for MAO-A and 0.1 to 200 μM concentrations of test compounds for the MAO-B enzyme activities. The type of enzyme inhibition was determined using variable concentrations of MAO-A substrate (10–360 µM) and MAO-B substrate (2–64 µM) for the respective enzyme assay. […] A Lineweaver–Burk double reciprocal plot was generated, and the mode of inhibition was determined by visual examination of the plot. The slope of the reciprocal plots was plotted against the inhibitor concentrations and determined the x-axis intercept that represented the inhibitor constant, Ki value.
All experiments were performed in triplicates and data are presented as mean ± standard error of the mean (SEM). The raw data are provided in Supplementary Data, Table S1. Enzyme kinetic data were analyzed using the Lineweaver–Burk plot. Statistical analysis was performed by Student’s t-test using GraphPad Prism Ver. 7.0 (GraphPad Prism Software Inc., San Diego, CA, USA).

human recombinant MAO-B = molecular target: T2, human recombinant MAO-B (Homo sapiens, UniProt P27338); experiment: MAO-Glo MAO-B inhibition assay; assay type: biochemical; conditions: N=1-3, listed as UroB
T2 construct: purchased Sigma-Aldrich
T2 sequence (P27338 1-520): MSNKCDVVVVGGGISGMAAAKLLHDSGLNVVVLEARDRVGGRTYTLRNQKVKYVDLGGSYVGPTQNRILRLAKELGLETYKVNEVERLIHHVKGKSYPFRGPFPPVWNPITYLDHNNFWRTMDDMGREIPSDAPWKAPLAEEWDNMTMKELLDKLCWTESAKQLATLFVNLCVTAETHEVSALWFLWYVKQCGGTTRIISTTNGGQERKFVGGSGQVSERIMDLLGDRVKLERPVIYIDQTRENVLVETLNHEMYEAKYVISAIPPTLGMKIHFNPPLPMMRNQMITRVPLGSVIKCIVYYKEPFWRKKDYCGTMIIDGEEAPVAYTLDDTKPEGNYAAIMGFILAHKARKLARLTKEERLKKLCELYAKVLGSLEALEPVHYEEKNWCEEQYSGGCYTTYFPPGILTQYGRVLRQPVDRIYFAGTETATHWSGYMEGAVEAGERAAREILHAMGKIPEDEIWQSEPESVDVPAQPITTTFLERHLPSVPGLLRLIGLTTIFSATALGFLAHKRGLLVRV
Description: as §1

[1] = UroB 0.4 µM, MAO-A substrate 10 uM
[2] = UroB 0.4 µM, MAO-A substrate 20 uM
[3] = UroB 0.4 µM, MAO-A substrate 40 uM
[4] = UroB 0.4 µM, MAO-A substrate 80 uM
[5] = UroB 0.4 µM, MAO-A substrate 160 uM
[6] = UroB 0.4 µM, MAO-A substrate 320 uM
[7] = UroB 2 µM, MAO-A substrate 10 uM
[8] = UroB 2 µM, MAO-A substrate 20 uM
[9] = UroB 2 µM, MAO-A substrate 40 uM
[10] = UroB 2 µM, MAO-A substrate 80 uM
[11] = UroB 2 µM, MAO-A substrate 160 uM
[12] = UroB 2 µM, MAO-A substrate 320 uM

mode of inhibition of MAO-A (human recombinant MAO-A; Lineweaver–Burk plot): mixed mode of inhibition | MAO-A assay signal (luminescence), Average (human recombinant MAO-A; [1]): 1545 | MAO-A assay signal (luminescence) (human recombinant MAO-A; [1]): 1603 and 1392 and 1640 | MAO-A assay signal (luminescence), Average (human recombinant MAO-A; [2]): 2811.33 | MAO-A assay signal (luminescence) (human recombinant MAO-A; [2]): 2815 and 2835 and 2784 | MAO-A assay signal (luminescence), Average (human recombinant MAO-A; [3]): 5085 | MAO-A assay signal (luminescence) (human recombinant MAO-A; [3]): 5099 and 4835 and 5321 | MAO-A assay signal (luminescence), Average (human recombinant MAO-A; [4]): 9642.33 | MAO-A assay signal (luminescence) (human recombinant MAO-A; [4]): 9741 and 9698 and 9488 | MAO-A assay signal (luminescence), Average (human recombinant MAO-A; [5]): 17162.3 | MAO-A assay signal (luminescence) (human recombinant MAO-A; [5]): 17107 and 16984 and 17396 | MAO-A assay signal (luminescence), Average (human recombinant MAO-A; [6]): 26885 | MAO-A assay signal (luminescence) (human recombinant MAO-A; [6]): 27251 and 26905 and 26499 | Transformed (reciprocal of MAO-A assay signal), Average (human recombinant MAO-A; UroB 0.4 µM, [1/S] 0.003125): 3.72e-5 | Transformed (reciprocal of MAO-A assay signal) (human recombinant MAO-A; UroB 0.4 µM, [1/S] 0.003125): 3.67e-5 and 3.717e-5 and 3.774e-5 | Transformed (reciprocal of MAO-A assay signal), Average (human recombinant MAO-A; UroB 0.4 µM, [1/S] 0.00625): 5.827e-5 | Transformed (reciprocal of MAO-A assay signal) (human recombinant MAO-A; UroB 0.4 µM, [1/S] 0.00625): 5.846e-5 and 5.888e-5 and 5.748e-5 | Transformed (reciprocal of MAO-A assay signal), Average (human recombinant MAO-A; UroB 0.4 µM, [1/S] 0.0125): 0.0001037 | Transformed (reciprocal of MAO-A assay signal) (human recombinant MAO-A; UroB 0.4 µM, [1/S] 0.0125): 0.0001027 and 0.0001031 and 0.0001054 | Transformed (reciprocal of MAO-A assay signal), Average (human recombinant MAO-A; UroB 0.4 µM, [1/S] 0.025): 0.0001967 | Transformed (reciprocal of MAO-A assay signal) (human recombinant MAO-A; UroB 0.4 µM, [1/S] 0.025): 0.0001961 and 0.0002068 and 0.0001879 | Transformed (reciprocal of MAO-A assay signal), Average (human recombinant MAO-A; UroB 0.4 µM, [1/S] 0.05): 0.0003557 | Transformed (reciprocal of MAO-A assay signal) (human recombinant MAO-A; UroB 0.4 µM, [1/S] 0.05): 0.0003552 and 0.0003527 and 0.0003592 | Transformed (reciprocal of MAO-A assay signal), Average (human recombinant MAO-A; UroB 0.4 µM, [1/S] 0.1): 0.0006472 | Transformed (reciprocal of MAO-A assay signal) (human recombinant MAO-A; UroB 0.4 µM, [1/S] 0.1): 0.0006238 and 0.0007184 and 0.0006098 | MAO-A assay signal (luminescence), Average (human recombinant MAO-A; [7]): 917 | MAO-A assay signal (luminescence) (human recombinant MAO-A; [7]): 965 and 892 and 894 | MAO-A assay signal (luminescence), Average (human recombinant MAO-A; [8]): 1607 | MAO-A assay signal (luminescence) (human recombinant MAO-A; [8]): 1578 and 1604 and 1639 | MAO-A assay signal (luminescence), Average (human recombinant MAO-A; [9]): 2957.33 | MAO-A assay signal (luminescence) (human recombinant MAO-A; [9]): 3058 and 2874 and 2940 | MAO-A assay signal (luminescence), Average (human recombinant MAO-A; [10]): 5505.33 | MAO-A assay signal (luminescence) (human recombinant MAO-A; [10]): 5631 and 5490 and 5395 | MAO-A assay signal (luminescence), Average (human recombinant MAO-A; [11]): 10332.7 | MAO-A assay signal (luminescence) (human recombinant MAO-A; [11]): 10318 and 10224 and 10456 | MAO-A assay signal (luminescence), Average (human recombinant MAO-A; [12]): 17850.7 | MAO-A assay signal (luminescence) (human recombinant MAO-A; [12]): 18126 and 17343 and 18083 | Transformed (reciprocal of MAO-A assay signal), Average (human recombinant MAO-A; UroB 2 µM, [1/S] 0.003125): 5.602e-5 | Transformed (reciprocal of MAO-A assay signal) (human recombinant MAO-A; UroB 2 µM, [1/S] 0.003125): 5.517e-5 and 5.766e-5 and 5.53e-5 | Transformed (reciprocal of MAO-A assay signal), Average (human recombinant MAO-A; UroB 2 µM, [1/S] 0.00625): 9.678e-5 | Transformed (reciprocal of MAO-A assay signal) (human recombinant MAO-A; UroB 2 µM, [1/S] 0.00625): 9.6918e-5 and 9.781e-5 and 9.564e-5 | Transformed (reciprocal of MAO-A assay signal), Average (human recombinant MAO-A; UroB 2 µM, [1/S] 0.0125): 0.0001816 | Transformed (reciprocal of MAO-A assay signal) (human recombinant MAO-A; UroB 2 µM, [1/S] 0.0125): 0.0001776 and 0.0001821 and 0.0001854 | Transformed (reciprocal of MAO-A assay signal), Average (human recombinant MAO-A; UroB 2 µM, [1/S] 0.025): 0.0003381 | Transformed (reciprocal of MAO-A assay signal) (human recombinant MAO-A; UroB 2 µM, [1/S] 0.025): 0.000327 and 0.0003479 and 0.0003401 | Transformed (reciprocal of MAO-A assay signal), Average (human recombinant MAO-A; UroB 2 µM, [1/S] 0.05): 0.0006223 | Transformed (reciprocal of MAO-A assay signal) (human recombinant MAO-A; UroB 2 µM, [1/S] 0.05): 0.0006337 and 0.0006234 and 0.0006101 | Transformed (reciprocal of MAO-A assay signal), Average (human recombinant MAO-A; UroB 2 µM, [1/S] 0.1): 0.001091 | Transformed (reciprocal of MAO-A assay signal) (human recombinant MAO-A; UroB 2 µM, [1/S] 0.1): 0.001036 and 0.001121 and 0.001119 | Michaelis-Menten best-fit Vmax of MAO-A, Average (human recombinant MAO-A; in presence of UroB 0.4 uM): 65357.3 | Michaelis-Menten best-fit Vmax of MAO-A (human recombinant MAO-A; in presence of UroB 0.4 uM): 61114 and 67822 and 67136 | Michaelis-Menten best-fit Vmax of MAO-A, Average (human recombinant MAO-A; in presence of UroB 2 uM): 66008.7 | Michaelis-Menten best-fit Vmax of MAO-A (human recombinant MAO-A; in presence of UroB 2 uM): 58741 and 70969 and 68316 | Ki (human recombinant MAO-A; x-axis intercept of slopes of Lineweaver–Burk plots vs inhibitor concentration): 2300 nM
SMILES: O=c1oc2cc(O)ccc2c2ccccc12 [UB, urolithin-B]
MAO-B enzyme assay, Percent of control (human recombinant MAO-B; 0.1 µM): 107.968% of control and 101.629% of control and 95.3271% of control | MAO-B enzyme assay, Percent of control (human recombinant MAO-B; 1 µM): 109.561% of control and 99.5806% of control and 93.6856% of control | MAO-B enzyme assay, Percent of control (human recombinant MAO-B; 10 µM): 97.6995% of control and 92.8109% of control and 92.0441% of control | MAO-B enzyme assay, Percent of control (human recombinant MAO-B; 25 µM): 95.5787% of control and 94.7999% of control and 85.3343% of control | MAO-B enzyme assay, Percent of control (human recombinant MAO-B; 50 µM): 93.9851% of control and 85.8855% of control and 84.5675% of control | MAO-B enzyme assay, Percent of control (human recombinant MAO-B; 100 µM (Figure 1C), 100 µM): 92.2554% of control and 86.0762% of control and 81.4109% of control | MAO-B enzyme assay, Percent of control (human recombinant MAO-B; 100 µM): 74.6465% of control and 81.8955% of control and 81.8476% of control | MAO-B enzyme assay, Percent of control (human recombinant MAO-B; 200 µM): 35.5859% of control and 42.116% of control and 26.5397% of control
